Patent US6495576B2, “Aminal diones as potassium channel openers” (Abbott Laboratories, priority 2001, dated 2002)

Row | melting point [°C] | Compound
1 | 213 to 214 | CC(C)(C)C(NC(=O)c1cccc(Cl)c1)Nc1c(Nc2cccnc2Cl)c(=O)c1=O (stereo not drawn) [Example 95, 3-Chloro-N-[1-({2-[(2-chloropyridin-3-yl)amino]-3,4-dioxo-1-cyclobuten-1-yl}amino)-2,2-dimethylpropyl]benzamide]
2 | 215 to 216 | CC(C)(C)C(NC(=O)c1cc(F)cc(F)c1)Nc1c(Nc2cccnc2Cl)c(=O)c1=O (single isomer, unassigned; (+)) [Example 110, (+) N-(1-{[3,4-Dioxo-2-(2-chloro3-pyridinylamino)-1-cyclobuten-1-yl]amino}-2,2-dimethylpropyl)-3,5-difluorobenzamide]
3 | 215 to 217 | CC(C)(C)C(NC(=O)c1cc(F)cc(F)c1)Nc1c(Nc2cccnc2Cl)c(=O)c1=O (stereo not drawn) [Example 110A, N-(1-{[3,4-Dioxo-2-(2-chloro3-pyridinylamino)-1-cyclobuten-1-yl]amino}-2,2-dimethylpropyl)-3,5-difluorobenzamide]

The remaining lines, values behind:

Row | Compound | melting point [°C]
4 | CC(C)(C)C(NC(=O)c1cc(Cl)cc(Cl)c1)Nc1c(Nc2cncc(C(F)(F)F)c2)c(=O)c1=O (stereo not drawn) [Example 53, 3,5-Dichloro-N-{1-[(3,4-dioxo-2-{[5-(trifluoromethyl)pyridin-3-yl]amino}-1-cyclobuten-1-yl)amino]-2,2-dimethylpropyl}benzamide] | 233 to 234
5 | COc1ncccc1Nc1c(NC(NC(=O)c2cccc(C)c2)C(C)(C)C)c(=O)c1=O (stereo not drawn) [Example 81, N-[1-({2-[(2-Methoxypyridin-3-yl)amino]3,4-dioxo-1-cyclobuten-1-yl}amino)-2,2-dimethylpropyl]-3-methylbenzamide] | 224 to 226
6 | COc1ncccc1Nc1c(NC(NC(=O)c2cccc(C)c2)C(C)(C)Cc2ccccc2)c(=O)c1=O (stereo not drawn) [Example 83, N-[1-({2-[(2-Methoxypyridin-3-yl)amino]-3,4-dioxo-1-cyclobuten-1-yl}amino)-2,2-dimethyl-3-phenylpropyl]-3-methylbenzamide] | 233 to 235
